Where two headings read alike, the source gives them in different places.
Experiments:
SARS-CoV-2-NLuc = assay: microbe, parasite or virus in culture; assay type: cell-based, SARS Coronavirus 2
[1] = biological target: recombinant SARS-CoV-2 Main protease (Mpro) (Severe acute respiratory syndrome coronavirus 2 (2019-nCoV) (SARS-CoV-2), UniProt P0DTD1); assay: Cov Mpro Biochemical IC50 Assay; settings: read-out: MPro IC50
[2] = Severe acute respiratory syndrome coronavirus, 48 h, read-out: MPro EC50
[3] = recombinant SARS-CoV-2 Mpro, fluorogenic peptide substrate
[4] = recombinant SARS-CoV-2 Mpro 7.5 nM, fluorogenic peptide substrate 40 μM
[5] = Severe acute respiratory syndrome coronavirus, 48 h; read-out: MPro EC50

Structure (SMILES): Cc1ncccc1-c1cccc(Cl)c1-c1ccc2c(=O)n(-c3cncc4ccccc34)c(=O)[nH]c2c1 [Example 320]
- EC50 (SARS-CoV-2-NLuc; [2]): 14.1 nM
- IC50 [1, 3]: 16 nM

Structure (SMILES): COc1cc(-c2cc3c(s2)c(=O)n(-c2cncc4nc(C)n(C)c24)c(=O)n3CC2(C#N)CC2)c(Cl)cc1F [Example 707]
- EC50 (SARS-CoV-2-NLuc; [2]): 8.9 nM
- IC50 [1, 4]: 2.13 nM

Structure (SMILES): COc1ccc(C#N)c(-c2ccc3c(=O)n(-c4cncc5ccccc45)c(=O)[nH]c3c2)c1 (single isomer, unassigned) [Example 569, 2-[3-(4-isoquinolyl)-2,4-dioxo-1H-quinazolin-7-yl]-4-methoxy-benzonitrile]
- EC50 (SARS-CoV-2-NLuc; read-out: MPro EC50): 20.5 nM
- IC50 [1, 4]: 8.41 nM

Structure (SMILES): N#CCCn1c(=O)n(-c2cncc3ccccc23)c(=O)c2sc(-c3cc(F)c(F)cc3Cl)cc21 [Example 826]
- EC50 (SARS-CoV-2-NLuc; [2]): 23.9 nM
- IC50 [1, 4]: 8.26 nM

Structure (SMILES): COc1cc(-c2cc3c(s2)c(=O)n(-c2cncc(Cl)c2Cl)c(=O)n3CCC#N)c(Cl)cc1F [Example 928]
- EC50 (SARS-CoV-2-NLuc; [2]): 16.2 nM
- IC50 [1, 4]: 12.2 nM

Structure (SMILES): COc1ccc(Cl)c(-c2cc3[nH]c(=O)n(-c4cncc5nc(C(F)(F)F)sc45)c(=O)c3s2)c1 [Example 487]
- EC50 (SARS-CoV-2-NLuc; [2]): 742 nM
- IC50 [1, 4]: 908 nM

Structure (SMILES): Cn1ncc2cncc(-n3c(=O)c4sc(-c5cc(Cl)ccc5C#N)cc4n(CCC#N)c3=O)c21 [Example 774]
- EC50 (SARS-CoV-2-NLuc; [2]): 19.4 nM
- IC50 [1, 4]: 6.33 nM

Structure (SMILES): COc1cc(-c2cc3[nH]c(=O)n(-c4cncc5ccn(C)c45)c(=O)c3s2)c(Cl)cc1F (single isomer, unassigned) [Example 957, 6-(2-chloro-4-fluoro-5-methoxyphenyl)-3-(1-methyl-1H-pyrrolo[3,2-c]pyridin-7-yl)thieno[3,2-d]pyrimidine-2,4(1H,3H)-dione]
- EC50 (SARS-CoV-2-NLuc; read-out: MPro EC50): 2.65 nM
- IC50 [1, 4]: 2.22 nM

Structure (SMILES): COc1ccc(C#N)c(-c2cc3[nH]c(=O)n(-c4cncc5ccccc45)c(=O)c3cc2OC)c1 [Example 312]
- EC50 (SARS-CoV-2-NLuc; [2]): 20.4 nM
- IC50 [1, 3]: 14.3 nM

Structure (SMILES): CN(C)C(=O)c1cccc(-c2cccc(Cl)c2-c2ccc3c(=O)n(-c4cncc5ccccc45)c(=O)[nH]c3c2)c1 [Example 188]
- EC50 (SARS-CoV-2-NLuc; [2]): 59.4 nM
- IC50 [1, 3]: 121 nM

Structure (SMILES): Cc1cc(Cl)c(-c2cc3c(s2)c(=O)n(-c2cncc4cnn(C)c24)c(=O)n3CCC#N)cc1Cl [Example 1024]
- EC50 (SARS-CoV-2-NLuc; [2]): 35.4 nM
- IC50 [1, 4]: 9.7 nM

Structure (SMILES): COc1cc(-c2cc3c(s2)c(=O)n(-c2cncc4nn(C)c(C)c24)c(=O)n3CCC#N)c(Cl)cc1F (single isomer, unassigned) [Example 1041, 3-(6-(2-chloro-4-fluoro-5-methoxyphenyl)-3-(2,3-dimethyl-2H-pyrazolo[3,4-c]pyridin-4-yl)-2,4-dioxo-3,4-dihydrothieno[3,2-d]pyrimidin-1(2H)-yl)propanenitrile]
- EC50 (SARS-CoV-2-NLuc; read-out: MPro EC50): 5.72 nM
- IC50 [1, 4]: 2.99 nM

Structure (SMILES): O=c1[nH]c2cc(-c3ccccc3OCc3ccccc3)sc2c(=O)n1-c1cncc2ccccc12 [Example 18]
- EC50 (SARS-CoV-2-NLuc; [2]): 208 nM
- IC50 [1, 3]: 2930 nM

Structure (SMILES): COc1cc(-c2nc3c(s2)c(=O)n(-c2cncc4ccccc24)c(=O)n3CCC#N)c(Cl)cc1F [Example 903]
- EC50 (SARS-CoV-2-NLuc; [2]): 13.1 nM
- IC50 [1, 4]: 8.52 nM

Structure (SMILES): COc1ccc(Cl)c(-c2cc3[nH]c(=O)n(-c4cncc5ccc(N6CCOCC6)cc45)c(=O)c3cc2F)c1 [Example 434]
- EC50 (SARS-CoV-2-NLuc; [5]): 33.3 nM
- IC50 [1, 4]: 16 nM

Structure (SMILES): O=c1[nH]c2cc(-c3c(Cl)cccc3-c3cn(CCO)nn3)ccc2c(=O)n1-c1cncc2ccccc12 [Example 293]
- EC50 (SARS-CoV-2-NLuc; [2]): 748 nM
- IC50 [1, 3]: 67.8 nM

Structure (SMILES): O=c1[nH]c2cc(-c3ccccc3Cl)sc2c(=O)n1-c1cncc2c1CCCC2 [Example 108]
- EC50 (SARS-CoV-2-NLuc; [2]): 71.4 nM
- IC50 [1, 3]: 9.23 nM

Structure (SMILES): COc1cc(-c2cc3c(s2)c(=O)n(-c2cncc4cccnc24)c(=O)n3CC2(C#N)CC2)c(Cl)cc1F [Example 709]
- EC50 (SARS-CoV-2-NLuc; [2]): 2.09 nM
- IC50 [1, 4]: 6.21 nM

Structure (SMILES): COc1cnc(C#N)c(-c2cc3c(s2)c(=O)n(-c2cncc4ccccc24)c(=O)n3CCC#N)c1 [Example 837, 3-(1-(2-cyanoethyl)-3-(isoquinolin-4-yl)-2,4-dioxo-1,2,3,4-tetrahydrothieno[3,2-d]pyrimidin-6-yl)-5-methoxypicolinonitrile]
- EC50 (SARS-CoV-2-NLuc; [2]): 30.4 nM
- IC50 [1, 4]: 9.22 nM

Structure (SMILES): Cn1c(C(F)(F)F)nc2cncc(-n3c(=O)c4sc(-c5ccccc5C#N)cc4n(CCC#N)c3=O)c21 [Example 858]
- EC50 (SARS-CoV-2-NLuc; [2]): 741 nM
- IC50 [1, 4]: 263 nM

Structure (SMILES): COCc1ccc(Cl)c(-c2ccc3c(=O)n(-c4cncc5ccccc45)c(=O)[nH]c3c2)c1 [Example 303]
- EC50 (SARS-CoV-2-NLuc; [2]): 365 nM
- IC50 [1, 3]: 270 nM

Structure (SMILES): O=c1[nH]c2cc(-c3ccccc3Cl)sc2c(=O)n1-c1cncc2cn(CC(F)(F)F)nc12 [Example 494]
- EC50 (SARS-CoV-2-NLuc; [2]): 118 nM
- IC50 [1, 4]: 36 nM

Structure (SMILES): Cn1ncc2cncc(-n3c(=O)[nH]c4cc(-c5ccccc5Cl)sc4c3=O)c21 [Example 495]
- EC50 (SARS-CoV-2-NLuc; [2]): 17.2 nM
- IC50 [1, 4]: 6.41 nM

Structure (SMILES): Cc1cncc(-n2c(=O)c3sc(-c4ccc(F)cc4C#N)cc3n(CCC#N)c2=O)c1 [Example 880]
- EC50 (SARS-CoV-2-NLuc; [5]): 42.3 nM
- IC50 [1, 4]: 10.6 nM

Structure (SMILES): COc1cc(-c2cc3c(s2)c(=O)n(-c2cncc(C)c2)c(=O)n3CCC#N)c(Cl)cc1F [Example 981]
- EC50 (SARS-CoV-2-NLuc; [2]): 1.39 nM
- IC50 [1, 4]: 1.38 nM

Reference: patent US20240116946A1 (Gilead Sciences, Inc., priority 2022, published 2024)
